Legend:
zebrafish embryos = test: 96-well plate embryo survival assay; format: in vivo; conditions: 1% DMSO in egg water, 5- to 8-day old embryos
Protocol: Next it was determined if 5- to 8-day old zebrafish embryos are able to survive in 96 well plates, and what […] of water was necessary to attain high levels of survival. Six-day old zebrafish embryos were allocated to wells in a 96 well plate. Three to four embryos were grown in 250, 150, and 100 μl of egg water with and without 1% DMSO and analyzed daily for mortality.

MYC-ER = conditions: in the presence of tamoxifen; by 300 days of development; CD2-MYC-ER mouse models; cited from earlier work

With C[S+](C)[O-] [DMSO] the “effect on embryo survival” value (zebrafish embryos) was “no significant effect”.
For CC/C(=C(\c1ccccc1)c1ccc(OCCN(C)C)cc1)c1ccccc1 [tamoxifen], the offspring developing tumors (MYC-ER) is given as 62%.

— patent US7525011B2, “Transgenic cancer models in fish” (Dana-Farber Cancer Institute, priority 2002, dated 2009)
